Assay results as given in patent US20050059627A1, “CRF2 ligands in combination therapy” (priority 2000, published 2005).
d = 2'-deoxy (DNA); m = 2'-O-methyl

How the values were obtained:
CRF2 receptor mRNA = assay: Quantitative in situ hybridization of CRF2 receptor mRNA; type: in vivo, rodent; details: 9 days dosing
Text: The absence of functional changes resulting from small antisense inhibitory effects often leads to non-interpretable results. This is due to the uncertainty of whether the experiment produced truly negative results or whether the antisense inhibition was insufficient to reveal a functional change. In addition to the antisense sequence, the magnitude of antisense inhibitory effects is influenced by the duration of antisense treatment and its relation to the half-life of the targeted protein. While the half-life of the CRF2 receptor is unknown, half-lives of other 7-transmembrane receptors in rodent brain (of which the CRF2 receptor is a member) are on the order of 2-3 days. Maximal inhibitory effects are typically seen after antisense treatment for at least 3 protein half-lives. While CRF2 antisense administration for 5 days produced a 40-50% inhibition of the receptor, increasing the duration of dosing to 9 days led to a 70-80% inhibitory effect on receptor binding. […] Therefore, in contrast to Heinrichs et al. whose CRF2 antisense oligonucleotide produced only a 15-20% CRF2 receptor reduction concomitant with significant weight loss in the treated animals, we have optimized antisense reagents for the study of CRF2 receptor function.

rats [1] = assay: Elevated plus maze assay; type: in vivo, rat; details: dosed 8 days, tested 2 hours after last injection; FIG. 4a
Text: The elevated plus maze (EPM) is widely used for the determination of anxiolytic or anxiogenic drug effects. The apparatus consists of a +-shaped maze, elevated 50 cm above the floor. Two opposing arms are open and exposed to the environment while the other two arms are enclosed with black Plexiglas sides. In rodents, exposure to the EPM produces an approach/avoidance conflict which generally causes the animal to spend most of its time in the closed arms of the maze.
In the antisense experiment, rats were dosed for 8 days and then tested in the EPM 2 hours after the last oligonucleotide injection. […] Such behavior is indicative of a reduced state of anxiety. […] Binding of ^125I-sauvagine to CRF2 receptors in the lateral septum was reduced by 60% by the antisense oligonucleotide in this experiment (FIG. 4b).
Oligonucleotide treatment of rats was begun on the 8th day following surgery. Rats were tested in the EPM 2 hours following dosing on the 8th day of treatment. At the start of the test, the rat was placed in the center square of the maze and its exploratory behavior during the ensuing 10 minutes was recorded by video-camera. An observer situated outside the test room scored the time spent in the open and closed arms, as well as the number of entries into each arm of the maze. The rats were euthanitized immediately following the conclusion of the test.

CRF2 receptors = assay: CRF2 receptor autoradiography: 125I-sauvagine binding in lateral septum of treated rats; type: in vivo, rat
Method: Rats were sacrificed by exposure to CO2. Brains were removed and frozen in methylbutane cooled on dry ice before storage at −80° C. Twenty μm sections through the lateral septum were cut on a cryostat(Kopf Instruments) for receptor autoradiography.
After warming to room temperature for 1 hour, brain sections were preincubated for 5 minutes in 50 mM Tris-HCL (pH 7.5) containing 10 mM MgCl2, 2 mM EGTA (ethylene glycol-bis(β-aminoethyl ether)N,N,N′,N′-tetraacetic acid), 0.1% ovalbumin, 0.08 TIU aprotinin and 0.1 mM bacitracin. Total binding was defined using 0.15 nM ^125I-sauvagine (New England Nuclear). CRF2 specific binding was determined in the presence of 1 μM SC-241, a CRF1 selective receptor antagonist (D. H. Rominger et alJ. Pharmacol. Exp. Therap., 286, 459-468, 1998). Non-specific binding was determined using 1 μM a-helical CRF (American Peptide). Incubations were performed in preincubation buffer containing radioligand and appropriate antagonists for 150 minutes. Tissue sections were then washed twice for 5 minutes each, in PBS containing 0.01% Triton X-100. After a final water rinse, excess water was aspirated and the sections were air-dried overnight. The sections and ^125I standard strips (Amersham) were exposed to Hyperfilm μ-Max (Amersham) for 72 hours.
Quantitation of CRF2 specific binding was performed using the NIH ImageMG 1.44 program. Optical density readings were converted to nCi of ligand bound per mg of protein tissue using ^125I standard strips. Between 7 to 9 adjacent sections were quantitated per rat.

rats [2] = assay: Freezing assay of anxiety (shock box); type: in vivo, rat
Method: CRF2 antisense oligonucleotides were administered intracerebroventricularly to target the lateral septum, a brain region containing high levels of CRF2 receptor and mRNA. The lateral septum is part of the limbic brain region known for its involvement in modulating fear and emotion. Rats treated with saline, antisense and mismatch-control oligonucleotides were tested in two different behavioral models of anxiety. Rodents display a characteristic freezing behavior when experiencing fear and anxiety. In the freezing model of anxiety, such behavior is induced by exposure to brief electrical foot-shocks. […] Administration of anxiolytic drugs such as benzodiazepines and selective serotonin reuptake inhibitors reduces the duration of freezing when previously shocked animals are returned to the shock box. In the antisense experiments, dosing of oligonucleotides began after two consecutive days of foot-shock treatment. Two hours following the last oligonucleotide administration on day 8 of dosing, rats were returned to the shock box and observed for 10 minutes. In this part of the experiment, which examines the effect of the pharmacological agent on conditioned fears, the antisense oligonucleotide, but not its mismatch control, reduced the duration of freezing by 50% (FIG. 3a). […] Furthermore, a robust suppression of CRF2 receptors produced important functional consequences that may not be apparent at lower levels of CRF2 receptor inhibition.
The shock box consisted of a black Plexiglas chamber with walls and cover. The doors of the box were constructed of clear Plexiglas over which one-way mirrors were attached for observation. The floor of the box contained a Coulbourn stainless steel shock grid with the bars of the grid spaced 1 cm apart. On the 8th day following surgical implantation of the guide cannulae, rats were placed in the box and allowed to habituate for 2 minutes. A total of 3 scrambled, randomized non-escapable foot-shocks (1.0 mA, 1 second duration) were then delivered at 20 second intervals to the grid floor. […]

Sequence: TGA GGC acc gga acC ACA CC (TGAGGCACCGGAACCACACC; sugars from the 5' end m6 d8 m6, linkages o6 s8 o5 (s phosphorothioate, o phosphodiester), methylation of C not given here) [Mismatch oligonucleotide, 4-base mismatch control of the antisense oligonucleotide, same chimeric chemistry, reference compound]
- decrease in CRF2 receptor mRNA (CRF2 receptor mRNA): minimal decreases
- time in the open arms of the maze (rats [1]): not statistically different from saline-treated rats
- decrease in receptor binding (CRF2 receptors; 9 days dosing): minimal decreases

Sequence: TGA CGC agc ggc acC AGA CC (TGACGCAGCGGCACCAGACC; sugars from the 5' end m6 d8 m6, linkages o6 s8 o5 (s phosphorothioate, o phosphodiester), methylation of C not given here) [antisense oligonucleotide]
- decrease in CRF2 receptor mRNA (CRF2 receptor mRNA): comparable decreases
- reduction in the duration of freezing (rats [2]; after two brief foot-shocks, additional 10 minutes, vs saline or mismatch, FIG. 3a): 50%
- freezing in the conditioned anxiety test (rats [2]; combination study: antisense icv 7 days, DPC904 oral, FIG. 7b): significant reductions in freezing
- reduction of duration of freezing (rats [2]; conditioned fear, icv, return to shock box, first 10 minutes, FIG. 3a): 50%
- time in the open arms of the maze (rats [1]): significantly more time in the open, exposed arms
- inhibition of the receptor (CRF2 receptors; administration for 5 days): 40-50%
- CRF2 receptor binding (CRF2 receptors; combination study, saline/methocel control 1.20±0.05): 0.51±0.08 nCi/mg
- inhibitory effect on receptor binding (CRF2 receptors; dosing for 9 days): 70-80%
- reduction of binding of 125I-sauvagine to CRF2 receptors in the lateral septum (CRF2 receptors; rats of the elevated plus maze experiment, FIG. 4b): 60%
- reduction in 125I-sauvagine binding to CRF2 receptors (CRF2 receptors; septal brain region of rats of the freezing assay, FIG. 3b): 70%
